Measurements from patent US20160106689A1, “USE” (Novabiotics Limited, priority 2014, published 2016).
In brackets after ≈: the same amount, converted by molar mass. Structures can show the parent of a compound that is named as a salt. Where two headings read alike, the source gives them in different places.

System: Pseudomonas aeruginosa (PAO1)
Assay: MIC100 determination against the type strain of Pseudomonas aeruginosa (PAO1)
Assay type: cell-based
Details: for MIC: Pseudomonas aeruginosa
Experimental: The MIC100 using cysteamine, oxidised cysteamine and cystamine against the type strain of Pseudomonas aeruginosa (PAO1) was determined. Cysteamine and ‘oxidised’ cysteamine (containing some cystamine) were consistently equivalent at either 250 μg/ml or (as shown in the summary table below) 500 μg/ml. We oxidised the cysteamine by leaving the powder exposed to the air (in a sterile environment) for 5 days—during which time it changes in appearance (turning from an off white crystalline morphology to more of a white powder). It often also accrues water as it is hygroscopic and can also react with air to produce water.

[1] = PAO1, in CA-MHB, three replicates, repeated three times, read-out: MIC100 against PAO1 in CA-MHB
[2] = PAO1, in MHB, three replicates, repeated three times, read-out: MIC100 against PAO1 in MHB

Row | SMILES | antibacterial activity (in words) (PAO1, oxidised cysteamine compared with fresh cysteamine) | MIC [1] [µg/mL] | MIC [2] [µg/mL] | MIC (PAO1, text statement, medium not stated, consistently either 250 or 500 across experiments, read-out: MIC100 against PAO1) [µg/mL] | MIC100 against PAO1 (medium not stated, consistently either 250 or 500 across experiments) [µg/mL]
1 | NCCSSCCN [Cystamine HCl, cystamine] | shown to be antibacterial | 1000 | 1000 |  | 
2 | NCCS [Cysteamine, cysteamine] |  | 500 (≈ 6.48 mM) | 500 (≈ 6.48 mM) | 250 (≈ 3.24 mM) | 500 (≈ 6.48 mM)
